From PubChem BioAssay (NCI)
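These data come from cells grown in 96-well plates and exposed to compound for 48 hours at five concentrations. GI50 marks 50% less growth. TGI denotes the concentration required for complete inhibition of growth.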

Assays:
Assay in all cases: NCI anticancer screen, dose series, 48 h
UO-31 renal = tested on: UO-31 renal
SK-OV-3 ovarian = tested on: SK-OV-3 ovarian
SW-620 colon = tested on: SW-620 colon
SF-295 CNS = tested on: SF-295 CNS
BT-549 breast = tested on: BT-549 breast
OVCAR-8 ovarian = tested on: OVCAR-8 ovarian
TK-10 renal = tested on: TK-10 renal
OVCAR-5 ovarian = tested on: OVCAR-5 ovarian
RXF 393 renal = tested on: RXF 393 renal
LOX IMVI melanoma = tested on: LOX IMVI melanoma
SF-539 CNS = tested on: SF-539 CNS
CAKI-1 renal = tested on: CAKI-1 renal
M14 melanoma = tested on: M14 melanoma
UACC-257 melanoma = tested on: UACC-257 melanoma
HL-60(TB) leukemia = tested on: HL-60(TB) leukemia
DU-145 prostate = tested on: DU-145 prostate
ACHN renal = tested on: ACHN renal
IGROV1 ovarian = tested on: IGROV1 ovarian
K-562 leukemia = tested on: K-562 leukemia
786-0 renal = tested on: 786-0 renal
COLO 205 colon = tested on: COLO 205 colon
NCI/ADR-RES ovarian = tested on: NCI/ADR-RES ovarian
NCI-H226 lung = tested on: NCI-H226 lung
HS 578T breast = tested on: HS 578T breast
SNB-19 CNS = tested on: SNB-19 CNS
U251 CNS = tested on: U251 CNS
HT29 colon = tested on: HT29 colon
UACC-62 melanoma = tested on: UACC-62 melanoma
MDA-MB-435 = tested on: MDA-MB-435
SN12C renal = tested on: SN12C renal
EKVX NSCLC = tested on: EKVX NSCLC
SK-MEL-2 melanoma = tested on: SK-MEL-2 melanoma
HOP-92 NSCLC = tested on: HOP-92 NSCLC
OVCAR-4 ovarian = tested on: OVCAR-4 ovarian
HOP-62 NSCLC = tested on: HOP-62 NSCLC
MOLT-4 leukemia = tested on: MOLT-4 leukemia
HCC-2998 colon = tested on: HCC-2998 colon
SNB-75 CNS = tested on: SNB-75 CNS
NCI-H23 lung = tested on: NCI-H23 lung
SF-268 CNS = tested on: SF-268 CNS
PC-3 prostate = tested on: PC-3 prostate
HCT-15 colon = tested on: HCT-15 colon
NCI-H522 lung = tested on: NCI-H522 lung
A498 renal = tested on: A498 renal
HCT-116 colon = tested on: HCT-116 colon
KM12 colon = tested on: KM12 colon
RPMI-8226 leukemia = tested on: RPMI-8226 leukemia
MALME-3M melanoma = tested on: MALME-3M melanoma
A549 NSCLC = tested on: A549 NSCLC
CCRF-CEM leukemia = tested on: CCRF-CEM leukemia
MCF7 breast = tested on: MCF7 breast
T-47D breast = tested on: T-47D breast
NCI-H460 lung = tested on: NCI-H460 lung
SR leukemia = tested on: SR leukemia
SK-MEL-5 melanoma = tested on: SK-MEL-5 melanoma
SK-MEL-28 melanoma = tested on: SK-MEL-28 melanoma
MDA-MB-231 breast = tested on: MDA-MB-231 breast

## CCCCCCNC(=O)Oc1ccc(/C(=C(\C)c2ccc(Cl)cc2)c2ccc(OCCN(C)C)cc2)cc1
UO-31 renal
  GI50: 1310 nM
  TGI: 2770 nM
SK-OV-3 ovarian
  GI50: 2220 nM
  TGI: 6920 nM
SW-620 colon
  GI50: 1600 nM
  TGI: 3030 nM
SF-295 CNS
  GI50: 1750 nM
  TGI: 3200 nM
BT-549 breast
  GI50: 2880 nM
  TGI: 9200 nM
OVCAR-8 ovarian
  GI50: 1600 nM
  TGI: 3100 nM
TK-10 renal
  GI50: 1840 nM
  TGI: 4080 nM
OVCAR-5 ovarian
  GI50: 4260 nM
  TGI: 17100 nM
RXF 393 renal
  GI50: 1330 nM
  TGI: 2720 nM
LOX IMVI melanoma
  GI50: 1630 nM
  TGI: 2990 nM
SF-539 CNS
  GI50: 1740 nM
  TGI: 3120 nM
CAKI-1 renal
  GI50: 1330 nM
  TGI: 2650 nM
M14 melanoma
  GI50: 1690 nM
  TGI: 3190 nM
UACC-257 melanoma
  GI50: 1760 nM
  TGI: 3280 nM
HL-60(TB) leukemia
  GI50: 1620 nM
  TGI: 4300 nM
DU-145 prostate
  GI50: 2020 nM
  TGI: 3920 nM
ACHN renal
  GI50: 1880 nM
  TGI: 3770 nM
IGROV1 ovarian
  GI50: 1810 nM
  TGI: 3570 nM
K-562 leukemia
  GI50: 1660 nM
  TGI: 7210 nM
786-0 renal
  GI50: 1740 nM
  TGI: 3270 nM
COLO 205 colon
  GI50: 1680 nM
  TGI: 3100 nM
NCI/ADR-RES ovarian
  GI50: 3120 nM
  TGI: 11800 nM
NCI-H226 lung
  GI50: 4260 nM
  TGI: 18100 nM
HS 578T breast
  GI50: 1550 nM
  TGI: 3530 nM
SNB-19 CNS
  GI50: 3310 nM
  TGI: 12400 nM
U251 CNS
  GI50: 1590 nM
  TGI: 3040 nM
HT29 colon
  GI50: 1710 nM
  TGI: 3370 nM
UACC-62 melanoma
  GI50: 1720 nM
  TGI: 3320 nM
MDA-MB-435
  GI50: 1720 nM
  TGI: 3240 nM
SN12C renal
  GI50: 1680 nM
  TGI: 3220 nM
EKVX NSCLC
  GI50: 3830 nM
  TGI: 16500 nM
SK-MEL-2 melanoma
  GI50: 1870 nM
  TGI: 3800 nM
HOP-92 NSCLC
  GI50: 1020 nM
  TGI: 2220 nM
OVCAR-4 ovarian
  GI50: 1940 nM
  TGI: 4650 nM
HOP-62 NSCLC
  GI50: 1630 nM
  TGI: 3180 nM
MOLT-4 leukemia
  GI50: 1930 nM
  TGI: 5270 nM
HCC-2998 colon
  GI50: 2060 nM
  TGI: 4290 nM
SNB-75 CNS
  GI50: 1690 nM
  TGI: 7120 nM
NCI-H23 lung
  GI50: 2240 nM
  TGI: 5710 nM
SF-268 CNS
  GI50: 2390 nM
  TGI: 7630 nM
PC-3 prostate
  GI50: 1440 nM
  TGI: 2840 nM
HCT-15 colon
  GI50: 1720 nM
  TGI: 3300 nM
NCI-H522 lung
  GI50: 1780 nM
  TGI: 3420 nM
A498 renal
  GI50: 2690 nM
  TGI: 12100 nM
HCT-116 colon
  GI50: 1530 nM
  TGI: 3000 nM
KM12 colon
  GI50: 1870 nM
  TGI: 3610 nM
RPMI-8226 leukemia
  GI50: 1900 nM
  TGI: 4300 nM
MALME-3M melanoma
  GI50: 1720 nM
  TGI: 3260 nM
A549 NSCLC
  GI50: 1630 nM
  TGI: 3130 nM
CCRF-CEM leukemia
  GI50: 1890 nM
  TGI: 5640 nM
MCF7 breast
  GI50: 216 nM
  TGI: 2190 nM
T-47D breast
  GI50: 1450 nM
  TGI: 4120 nM
NCI-H460 lung
  GI50: 1700 nM
  TGI: 3120 nM
SR leukemia
  GI50: 1680 nM
  TGI: 4100 nM
SK-MEL-5 melanoma
  GI50: 1770 nM
  TGI: 3250 nM
SK-MEL-28 melanoma
  GI50: 1780 nM
  TGI: 3260 nM
MDA-MB-231 breast
  GI50: 1770 nM
  TGI: 3380 nM
